From ChEMBL document CHEMBL1201862, “PubChem BioAssay data set” (2004) come the findings set out here.

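Five compound concentrations were applied to cells in 96-well plates for 48 hours; endpoints were derived by simple linear interpolation of the resulting dose-response curve. Here, GI50 denotes the concentration required for 50% inhibition of growth.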 Active and inactive are the calls of the source. Cut-off read from the data, not from the text of the source: active = GI50 up to about 1.1 µM and inactive = higher.

One may read the GI50 as the concentration that inhibits growth by half.

Among the test systems are MDA-MB-435; NCI-H522; HCC 2998; HCT-15; U-251; OVCAR-5; HT-29; Hs-578T; EKVX; NCI-H460; UACC-257; RPMI-8226; TK-10; MDA-MB-231; OVCAR-3; ACHN; SF-539; IGROV-1; T47D; SK-OV-3.
Common to all, as to test: DTP human tumour cell line panel, 48 h

As to `Nc1ccc(Oc2ccc(C3(c4ccc(Oc5ccc(N)cc5)cc4)C4CC5C6CC7CC5C3C(C7)C6C4)cc2)cc1`, the GI50 in the experiment on MDA-MB-435 is 19 µM (inactive); in the experiment on NCI-H522, > 81.7 µM (inactive); with HCC 2998, 1.07 µM (active); in the experiment with HCT-15, 20.1 µM; in the experiment with U-251, 1.03 µM (active); in the experiment with OVCAR-5, > 100 µM (inactive). The GI50 with HT-29 is 0.774 µM (active); in the experiment on Hs-578T, 62.5 µM (inactive); with EKVX it was 27 µM (inactive); with NCI-H460, 21.1 µM (inactive); in the experiment on UACC-257, > 58.6 µM (inactive); in the experiment with RPMI-8226, 14.8 µM (inactive). Moreover, the GI50 is > 78 µM (inactive) with TK-10; 23.1 µM (inactive) with MDA-MB-231; 2.01 µM (inactive) in the experiment on OVCAR-3; 48.5 µM (inactive) with ACHN; 42.5 µM (inactive) in the experiment on SF-539; > 52.1 µM (inactive) in the experiment on IGROV-1.

For the molecule `c1ccc(COc2ccc(CC3SCCCS3)cc2)cc1`, the GI50 with MDA-MB-435 was > 100 µM (inactive); in the experiment on NCI-H522, > 100 µM (inactive); with HCC 2998, > 100 µM (inactive); with HCT-15, 67.3 µM; in the experiment with HT-29, > 100 µM (inactive); in the experiment on T47D, 49.7 µM (inactive). Besides, the GI50 with EKVX was > 100 µM (inactive); with NCI-H460, 65.8 µM (inactive); in the experiment on UACC-257, 21.8 µM (inactive); with RPMI-8226, 50.2 µM (inactive); with TK-10 it was > 100 µM (inactive); in the experiment with MDA-MB-231 it was 74.1 µM (inactive). For the same molecule, the GI50 in the experiment on OVCAR-3 was > 100 µM (inactive); with ACHN, > 100 µM (inactive); in the experiment with IGROV-1, 66.2 µM (inactive).

Consider `CCOC(=O)CCCOc1cc(-c2ccccc2F)nc2cc3c(cc12)OCO3`, for which the GI50 in the experiment on MDA-MB-435 was 53.6 µM (inactive); with HCC 2998, 5.82 µM (inactive); with HCT-15, 3.29 µM; in the experiment with U-251, 95.9 µM (inactive); with OVCAR-5, > 100 µM (inactive); in the experiment with HT-29, 43.7 µM (inactive). Besides, the GI50 is 25.5 µM (inactive) in the experiment with T47D; 40.6 µM (inactive) in the experiment with EKVX; 70.3 µM (inactive) in the experiment with UACC-257; 28.4 µM (inactive) in the experiment on RPMI-8226; > 100 µM (inactive) with SK-OV-3; > 100 µM (inactive) with TK-10. The GI50 in the experiment with MDA-MB-231 was > 100 µM (inactive); in the experiment with SF-539 it was > 100 µM (inactive); in the experiment with IGROV-1, 24.6 µM (inactive).

For the molecule `COc1ccc(C2=NNC(c3cc4cc(Br)ccc4nc3Cl)C2)cc1` (stereo not drawn), the GI50 in the experiment with MDA-MB-435 was 7.16 µM (inactive); with HCC 2998, 11.5 µM (inactive); in the experiment on OVCAR-5 it was > 25 µM (inactive); in the experiment with HT-29 it was 14.6 µM (inactive); in the experiment with Hs-578T, 0.0129 µM (active); in the experiment on T47D, 0.0887 µM (active). The GI50 in the experiment on EKVX is 19.4 µM (inactive); in the experiment with NCI-H460 it was 10 µM (inactive); in the experiment on UACC-257, 12.2 µM (inactive); with RPMI-8226, 5.74 µM (inactive); with OVCAR-3 it was 18.2 µM (inactive); in the experiment with ACHN, 13.2 µM (inactive). In addition, in the experiment with IGROV-1, the GI50 was 9.42 µM (inactive).

As to `COc1ccc2[nH]c3c(C)c4cc[n+](C)cc4c(C)c3c2c1`, the GI50 in the experiment on NCI-H522 is 0.562 µM (active); in the experiment on HCC 2998, 3.15 µM (inactive); with U-251, 0.191 µM (active); with OVCAR-5, 9.51 µM (inactive); in the experiment on HT-29 it was 4.83 µM (inactive); with Hs-578T it was 0.199 µM (active). In addition, the GI50 was 1.16 µM (inactive) in the experiment on EKVX; 1.64 µM (inactive) in the experiment on NCI-H460; 12.1 µM (inactive) in the experiment with UACC-257; 6.78 µM (inactive) in the experiment with SK-OV-3; 3.09 µM (inactive) in the experiment with OVCAR-3; 14 µM (inactive) in the experiment with ACHN. Further, the GI50 was 0.345 µM (active) in the experiment with SF-539 and 2.19 µM (inactive) with IGROV-1.

Consider `CCOC(=O)CCC(C(=O)OCC)n1nnc2ccc(Nc3c(C)[n+]([O-])c4cc(F)c(OCC)cc4[n+]3[O-])cc21` (stereo not drawn), for which the GI50 in the experiment with MDA-MB-435 is 42.9 µM (inactive); in the experiment with NCI-H522, 61.7 µM (inactive); with HCT-15 it was 52.8 µM; in the experiment on U-251, 63.8 µM (inactive); in the experiment with OVCAR-5 it was > 100 µM (inactive); with HT-29 it was 56.8 µM (inactive). In addition, the GI50 with Hs-578T was > 100 µM (inactive); in the experiment on T47D, 30.2 µM (inactive); in the experiment with EKVX, 44.7 µM (inactive); with NCI-H460, 60.3 µM (inactive); with UACC-257, 21.2 µM (inactive); in the experiment on RPMI-8226 it was 21.5 µM (inactive). In addition, the GI50 is > 100 µM (inactive) in the experiment on SK-OV-3; > 100 µM (inactive) with TK-10; 25.4 µM (inactive) in the experiment on OVCAR-3; 51.8 µM (inactive) in the experiment with ACHN; 24.8 µM (inactive) in the experiment on SF-539; 48.1 µM (inactive) in the experiment on IGROV-1.

`CCOC(=O)C1CC(O)C(=O)N1C` (stereo not drawn): the GI50 with MDA-MB-435 is > 100 µM (inactive); in the experiment on HCC 2998 it was > 100 µM (inactive); with HCT-15, more than 100 µM; with U-251, > 100 µM (inactive); in the experiment on OVCAR-5, > 100 µM (inactive); in the experiment with HT-29 it was > 100 µM (inactive). Moreover, the GI50 in the experiment with T47D, with EKVX, with UACC-257, in the experiment on RPMI-8226, in the experiment with SK-OV-3 and with TK-10 was > 100 µM (inactive) in each case. Besides, the GI50 with MDA-MB-231, in the experiment on OVCAR-3, in the experiment with ACHN, in the experiment with SF-539 and in the experiment on IGROV-1 was > 100 µM (inactive) each time.

In the case of `O=C1/C(=C\c2cccc(Oc3ccccc3)c2)S(=O)(=O)C(c2ccccc2)N1c1ccc(Cl)cc1` (stereo not drawn), the GI50 in the experiment on MDA-MB-435 is 7.94 µM (inactive); with NCI-H522, 15.7 µM (inactive); with HCC 2998 it was 56.1 µM (inactive); in the experiment with HCT-15 it was 13.7 µM; with U-251 it was 16 µM (inactive); in the experiment with OVCAR-5 it was 11.7 µM (inactive). Further, the GI50 in the experiment on HT-29 is 14.3 µM (inactive); with T47D it was 5.55 µM (inactive); in the experiment with EKVX, 23 µM (inactive); in the experiment with NCI-H460, 14.2 µM (inactive); with UACC-257, 24 µM (inactive); in the experiment with RPMI-8226 it was 12.3 µM (inactive). The GI50 in the experiment on SK-OV-3 was 32.2 µM (inactive); with TK-10 it was 92.3 µM (inactive); in the experiment on MDA-MB-231 it was 14.8 µM (inactive); with OVCAR-3, 14.4 µM (inactive); with ACHN it was 12.9 µM (inactive); with SF-539, 23.7 µM (inactive). For the same molecule, the GI50 in the experiment on IGROV-1 is 14.7 µM (inactive).

As for `Cc1cc(-c2ccc(C(=O)O)[nH]2)on1`, the GI50 with MDA-MB-435 is 6.98 µM (inactive); in the experiment with NCI-H522, 29 µM (inactive); with HCC 2998, 55 µM (inactive); in the experiment with HCT-15, 20.2 µM; with U-251, 65.6 µM (inactive); in the experiment on OVCAR-5, 74.1 µM (inactive). In addition, the GI50 is 27.1 µM (inactive) with HT-29; 49.2 µM (inactive) in the experiment with Hs-578T; 42.1 µM (inactive) with EKVX; 40.6 µM (inactive) with NCI-H460; > 100 µM (inactive) in the experiment with UACC-257; 62.7 µM (inactive) in the experiment on RPMI-8226. In addition, the GI50 was 32.6 µM (inactive) in the experiment on SK-OV-3; > 100 µM (inactive) in the experiment with TK-10; > 100 µM (inactive) in the experiment with MDA-MB-231; 32.4 µM (inactive) in the experiment on OVCAR-3; > 100 µM (inactive) in the experiment on ACHN; 50.4 µM (inactive) with IGROV-1.

On to `CC1=C2C(O)C(C(C)CO)C(O)CC2(C)C(O)CC1` (stereo not drawn), for which the GI50 is > 100 µM (inactive) with NCI-H522; > 100 µM (inactive) with HCC 2998; more than 100 µM in the experiment with HCT-15; > 100 µM (inactive) in the experiment on U-251; > 100 µM (inactive) in the experiment with OVCAR-5; > 100 µM (inactive) in the experiment with HT-29. For the same molecule, the GI50 with EKVX, with NCI-H460, with UACC-257, in the experiment on RPMI-8226, with SK-OV-3 and in the experiment on TK-10 was > 100 µM (inactive) in each case. Moreover, the GI50 in the experiment with OVCAR-3, in the experiment with ACHN, in the experiment with SF-539 and in the experiment on IGROV-1 was > 100 µM (inactive) each time.

Turning to `CCCCCCCCCCCCCCCCC1=CC(=O)C=C(OC)C1=O`, the GI50 was > 100 µM (inactive) with MDA-MB-435; > 100 µM (inactive) in the experiment with NCI-H522; > 100 µM (inactive) in the experiment on HCC 2998; 66.8 µM in the experiment with HCT-15; 32.5 µM (inactive) with U-251; > 100 µM (inactive) in the experiment on OVCAR-5. For the same molecule, the GI50 is > 100 µM (inactive) in the experiment with HT-29; 37.6 µM (inactive) in the experiment on Hs-578T; > 100 µM (inactive) in the experiment on EKVX; 34.4 µM (inactive) in the experiment on NCI-H460; > 100 µM (inactive) with UACC-257; 91.2 µM (inactive) with RPMI-8226. For the same molecule, the GI50 in the experiment on SK-OV-3 is > 100 µM (inactive); in the experiment with TK-10 it was > 100 µM (inactive); with MDA-MB-231, > 100 µM (inactive); with OVCAR-3 it was > 100 µM (inactive); in the experiment on ACHN, > 100 µM (inactive); with SF-539, 47.3 µM (inactive). Also, the GI50 in the experiment with IGROV-1 was > 100 µM (inactive).

With `C/C=C/CP(=O)(c1ccccc1)c1ccccc1`, the GI50 in the experiment on NCI-H522 was > 100 µM (inactive); with HCC 2998, > 100 µM (inactive); in the experiment on HCT-15, more than 100 µM; in the experiment with U-251, > 100 µM (inactive); in the experiment on OVCAR-5 it was > 100 µM (inactive); in the experiment on HT-29, > 100 µM (inactive). For the same molecule, the GI50 in the experiment with EKVX, in the experiment with NCI-H460, with UACC-257, with RPMI-8226, in the experiment with SK-OV-3 and in the experiment with TK-10 was > 100 µM (inactive) throughout. Further, the GI50 in the experiment on OVCAR-3, in the experiment on ACHN, in the experiment on SF-539 and in the experiment with IGROV-1 was > 100 µM (inactive) in each case.
